Assay results: article doi:10.1101/2020.06.11.145995v1 (biorxiv, 2020)
Where two headings read alike, the source gives them in different places. Blank lines part the entries; values can stand above or below the compound they belong to.

Key:
Test in all cases: biochemical
NEK3 = NEK3 (Homo sapiens, UniProt P51956)
RSK3 = RSK3 (Homo sapiens, UniProt Q15349)
TNK1 = TNK1 (Homo sapiens, UniProt Q13470)
PLK2 = PLK2 (Homo sapiens, UniProt Q9NYY3)
PRKD1 = PRKD1 (Homo sapiens, UniProt Q15139)
TXK = TXK (Homo sapiens, UniProt P42681)
TBK1 = TBK1 (Homo sapiens, UniProt Q9UHD2)
TYRO3 = TYRO3 (Homo sapiens, UniProt Q06418)
SNRK = SNRK (Homo sapiens, UniProt Q9NRH2)
STK16 = STK16 (Homo sapiens, UniProt O75716)
PAK1 = PAK1 (Homo sapiens, UniProt Q13153)
S6K1 = S6K1 (Homo sapiens, UniProt P23443)
QSK = QSK (Homo sapiens, UniProt Q9Y2K2)
PIK3CA(I800L) = PIK3CA(I800L) (Homo sapiens, UniProt P42336, I800L)
TAOK2 = TAOK2 (Homo sapiens, UniProt Q9UL54)
TAK1 = TAK1 (Homo sapiens, UniProt O43318)
TAK1, sequence (O43318 whole entry): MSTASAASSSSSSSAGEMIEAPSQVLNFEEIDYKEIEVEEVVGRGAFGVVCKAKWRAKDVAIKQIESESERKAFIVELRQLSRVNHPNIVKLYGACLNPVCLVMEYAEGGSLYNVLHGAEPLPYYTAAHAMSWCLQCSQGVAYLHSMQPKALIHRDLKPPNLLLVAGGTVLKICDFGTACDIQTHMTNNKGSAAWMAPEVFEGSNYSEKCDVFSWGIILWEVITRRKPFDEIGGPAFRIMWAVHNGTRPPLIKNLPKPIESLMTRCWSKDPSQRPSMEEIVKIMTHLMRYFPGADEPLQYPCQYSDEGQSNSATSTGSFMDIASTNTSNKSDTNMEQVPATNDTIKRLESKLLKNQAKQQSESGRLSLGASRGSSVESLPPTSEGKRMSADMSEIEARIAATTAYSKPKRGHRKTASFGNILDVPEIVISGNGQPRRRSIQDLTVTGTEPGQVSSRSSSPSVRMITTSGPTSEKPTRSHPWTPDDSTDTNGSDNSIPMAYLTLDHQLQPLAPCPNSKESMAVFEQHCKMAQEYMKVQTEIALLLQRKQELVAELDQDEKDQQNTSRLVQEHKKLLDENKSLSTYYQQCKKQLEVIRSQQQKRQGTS

NEK4 = NEK4 (Homo sapiens, UniProt P51957)
NEK4, sequence (P51957 whole entry): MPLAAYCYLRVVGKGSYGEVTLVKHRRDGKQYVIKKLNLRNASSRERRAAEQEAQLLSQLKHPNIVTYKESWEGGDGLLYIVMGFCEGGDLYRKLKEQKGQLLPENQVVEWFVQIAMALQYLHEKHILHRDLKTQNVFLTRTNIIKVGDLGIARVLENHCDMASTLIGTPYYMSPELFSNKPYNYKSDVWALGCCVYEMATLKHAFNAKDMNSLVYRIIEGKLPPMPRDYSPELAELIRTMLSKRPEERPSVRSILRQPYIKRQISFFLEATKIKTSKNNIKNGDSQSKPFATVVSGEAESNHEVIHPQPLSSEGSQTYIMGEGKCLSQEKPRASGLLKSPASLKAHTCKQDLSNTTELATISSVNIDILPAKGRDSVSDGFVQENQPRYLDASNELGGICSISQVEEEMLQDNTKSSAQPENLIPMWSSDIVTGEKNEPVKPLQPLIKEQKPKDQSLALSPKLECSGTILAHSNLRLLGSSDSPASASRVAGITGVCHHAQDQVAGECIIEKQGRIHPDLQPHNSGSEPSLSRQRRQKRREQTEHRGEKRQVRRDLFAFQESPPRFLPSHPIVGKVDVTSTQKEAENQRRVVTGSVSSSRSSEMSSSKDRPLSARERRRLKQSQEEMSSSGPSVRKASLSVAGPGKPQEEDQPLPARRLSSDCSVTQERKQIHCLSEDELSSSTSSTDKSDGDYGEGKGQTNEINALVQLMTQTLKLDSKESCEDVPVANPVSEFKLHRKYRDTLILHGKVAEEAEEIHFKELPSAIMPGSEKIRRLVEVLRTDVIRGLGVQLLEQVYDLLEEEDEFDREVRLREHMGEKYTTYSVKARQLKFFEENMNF

PRKCE = PRKCE (Homo sapiens, UniProt Q02156)
PRKCE, sequence (Q02156 whole entry): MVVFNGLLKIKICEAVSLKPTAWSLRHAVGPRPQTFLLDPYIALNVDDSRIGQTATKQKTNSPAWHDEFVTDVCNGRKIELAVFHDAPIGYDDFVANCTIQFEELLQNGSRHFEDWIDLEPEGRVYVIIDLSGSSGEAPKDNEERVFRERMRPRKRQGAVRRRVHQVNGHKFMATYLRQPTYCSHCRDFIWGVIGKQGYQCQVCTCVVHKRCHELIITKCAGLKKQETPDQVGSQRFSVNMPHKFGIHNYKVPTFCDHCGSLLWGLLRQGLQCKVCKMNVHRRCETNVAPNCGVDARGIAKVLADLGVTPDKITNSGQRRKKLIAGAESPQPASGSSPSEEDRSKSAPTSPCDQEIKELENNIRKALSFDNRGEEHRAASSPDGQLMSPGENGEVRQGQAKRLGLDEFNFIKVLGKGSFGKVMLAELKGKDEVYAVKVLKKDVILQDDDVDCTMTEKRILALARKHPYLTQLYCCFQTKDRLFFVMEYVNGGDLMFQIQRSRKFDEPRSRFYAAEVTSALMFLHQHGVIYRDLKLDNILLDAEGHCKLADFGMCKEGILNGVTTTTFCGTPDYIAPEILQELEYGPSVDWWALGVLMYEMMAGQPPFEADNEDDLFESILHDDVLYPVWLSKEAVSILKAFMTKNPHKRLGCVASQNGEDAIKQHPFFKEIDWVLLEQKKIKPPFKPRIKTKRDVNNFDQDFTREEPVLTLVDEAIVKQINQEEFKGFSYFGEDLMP

PFTK1 = PFTK1 (Homo sapiens, UniProt O94921)
PFTAIRE2 = PFTAIRE2 (Homo sapiens, UniProt Q96Q40)
MKK7 = MKK7 (Homo sapiens, UniProt O14733)
MKK7, sequence (O14733 whole entry): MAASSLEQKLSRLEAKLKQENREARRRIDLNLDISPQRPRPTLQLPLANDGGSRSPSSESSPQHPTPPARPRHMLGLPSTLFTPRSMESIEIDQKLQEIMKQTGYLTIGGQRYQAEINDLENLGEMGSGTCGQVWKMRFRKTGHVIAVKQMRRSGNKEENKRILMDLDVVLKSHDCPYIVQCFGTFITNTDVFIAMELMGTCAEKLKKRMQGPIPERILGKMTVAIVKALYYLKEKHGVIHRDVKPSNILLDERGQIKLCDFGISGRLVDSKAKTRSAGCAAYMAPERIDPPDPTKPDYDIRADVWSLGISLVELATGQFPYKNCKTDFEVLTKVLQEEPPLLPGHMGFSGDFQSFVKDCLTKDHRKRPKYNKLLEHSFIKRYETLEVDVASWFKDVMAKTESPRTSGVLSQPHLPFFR

YSK1 = YSK1 (Homo sapiens, UniProt O00506)
PRKCI = PRKCI (Homo sapiens, UniProt P41743)
PAK7 = PAK7 (Homo sapiens, UniProt Q9P286)
SBK1 = SBK1 (Homo sapiens, UniProt Q52WX2)
SBK1, sequence (Q52WX2 whole entry): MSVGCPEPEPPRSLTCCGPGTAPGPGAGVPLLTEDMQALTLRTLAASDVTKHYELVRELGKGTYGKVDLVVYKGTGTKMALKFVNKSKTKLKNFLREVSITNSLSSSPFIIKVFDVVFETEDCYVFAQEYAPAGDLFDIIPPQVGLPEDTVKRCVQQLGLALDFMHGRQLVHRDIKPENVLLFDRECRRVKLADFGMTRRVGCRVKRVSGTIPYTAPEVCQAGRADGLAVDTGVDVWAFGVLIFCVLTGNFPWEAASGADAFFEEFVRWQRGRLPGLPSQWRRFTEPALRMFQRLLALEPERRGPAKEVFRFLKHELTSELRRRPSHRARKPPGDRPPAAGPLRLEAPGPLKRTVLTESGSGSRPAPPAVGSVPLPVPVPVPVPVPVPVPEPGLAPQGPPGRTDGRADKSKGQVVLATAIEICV

PAK6 = PAK6 (Homo sapiens, UniProt Q9NQU5)
TRKA = TRKA (Homo sapiens, UniProt P04629)
WEE1 = WEE1 (Homo sapiens, UniProt P30291)
RET(V804M) = RET(V804M) (Homo sapiens, UniProt P07949, V804M)
[1] = read-out: CPT-1-70-1 (1μM) % control
[2] = read-out: HYJ-2-002-1 (1μM) % control

RSK3, sequence (Q15349 whole entry): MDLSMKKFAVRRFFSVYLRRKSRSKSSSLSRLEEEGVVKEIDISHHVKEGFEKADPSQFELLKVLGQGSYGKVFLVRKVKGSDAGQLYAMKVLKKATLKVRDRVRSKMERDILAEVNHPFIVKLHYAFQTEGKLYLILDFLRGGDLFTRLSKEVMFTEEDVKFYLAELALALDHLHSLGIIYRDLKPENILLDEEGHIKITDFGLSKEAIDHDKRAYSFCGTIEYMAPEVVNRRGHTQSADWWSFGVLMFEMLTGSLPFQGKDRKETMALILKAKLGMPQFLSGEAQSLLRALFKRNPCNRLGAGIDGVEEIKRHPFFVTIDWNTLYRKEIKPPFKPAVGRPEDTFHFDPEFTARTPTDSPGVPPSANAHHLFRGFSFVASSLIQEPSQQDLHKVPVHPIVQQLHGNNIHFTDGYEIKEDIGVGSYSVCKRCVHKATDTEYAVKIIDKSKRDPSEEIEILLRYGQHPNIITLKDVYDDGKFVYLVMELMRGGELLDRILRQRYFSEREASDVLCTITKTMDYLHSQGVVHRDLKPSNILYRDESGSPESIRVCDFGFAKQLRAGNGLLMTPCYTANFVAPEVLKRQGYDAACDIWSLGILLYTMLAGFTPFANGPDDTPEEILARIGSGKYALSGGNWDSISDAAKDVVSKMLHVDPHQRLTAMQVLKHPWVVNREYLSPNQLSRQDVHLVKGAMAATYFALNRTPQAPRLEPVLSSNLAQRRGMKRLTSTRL
PLK2, sequence (Q9NYY3 whole entry): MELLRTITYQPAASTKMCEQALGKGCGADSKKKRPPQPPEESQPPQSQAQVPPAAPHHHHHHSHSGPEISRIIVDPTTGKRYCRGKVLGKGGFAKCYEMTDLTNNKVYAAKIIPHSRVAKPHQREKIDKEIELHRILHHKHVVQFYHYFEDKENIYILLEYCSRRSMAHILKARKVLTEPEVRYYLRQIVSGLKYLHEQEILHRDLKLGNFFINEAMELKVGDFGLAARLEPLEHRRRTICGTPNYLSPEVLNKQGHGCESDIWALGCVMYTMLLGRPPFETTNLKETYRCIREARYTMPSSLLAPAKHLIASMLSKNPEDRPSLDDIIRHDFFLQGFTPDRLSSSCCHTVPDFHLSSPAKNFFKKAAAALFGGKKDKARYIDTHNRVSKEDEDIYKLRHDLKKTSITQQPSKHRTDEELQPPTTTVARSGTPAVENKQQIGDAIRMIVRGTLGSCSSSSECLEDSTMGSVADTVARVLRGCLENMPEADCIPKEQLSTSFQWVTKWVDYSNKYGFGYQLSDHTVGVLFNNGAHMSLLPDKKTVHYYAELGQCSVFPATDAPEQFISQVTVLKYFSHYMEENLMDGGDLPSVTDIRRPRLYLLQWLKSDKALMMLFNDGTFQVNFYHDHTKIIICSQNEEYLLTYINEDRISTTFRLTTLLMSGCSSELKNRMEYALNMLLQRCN
NEK3, sequence (P51956 whole entry): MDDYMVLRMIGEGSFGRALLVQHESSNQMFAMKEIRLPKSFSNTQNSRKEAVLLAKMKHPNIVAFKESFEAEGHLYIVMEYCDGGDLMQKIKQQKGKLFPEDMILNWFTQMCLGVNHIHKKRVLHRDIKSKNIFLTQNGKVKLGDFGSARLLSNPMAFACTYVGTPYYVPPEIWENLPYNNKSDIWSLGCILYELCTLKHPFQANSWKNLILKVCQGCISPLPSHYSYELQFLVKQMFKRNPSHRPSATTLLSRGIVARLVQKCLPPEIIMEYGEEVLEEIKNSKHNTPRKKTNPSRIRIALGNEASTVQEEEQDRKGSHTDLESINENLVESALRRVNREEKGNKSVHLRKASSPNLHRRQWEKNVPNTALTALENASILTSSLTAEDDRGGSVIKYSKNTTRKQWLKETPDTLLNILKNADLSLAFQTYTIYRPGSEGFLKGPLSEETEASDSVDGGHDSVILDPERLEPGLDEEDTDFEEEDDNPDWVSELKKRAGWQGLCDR

Compound: CN1CCN(c2ccc(Nc3nc(Oc4ccc(NC(=O)CCl)cc4)c4cc[nH]c4n3)cc2)CC1 [CPT1-70-1]
remaining activity at 1 µM (NEK3; [1]): 68% | remaining activity at 1 µM (RSK3; read-out: CPT-1-70-1 (1μM) % control, Kin.Dom.1-N-terminal): 66% | remaining activity at 1 µM (RSK3; read-out: CPT-1-70-1 (1μM) % control, Kin.Dom.2-C-terminal): 100% | remaining activity at 1 µM (TNK1; [1]): 0.95% | remaining activity at 1 µM (PLK2; [1]): 78% | remaining activity at 1 µM (PRKD1; [1]): 52% | remaining activity at 1 µM (TXK; [1]): 4.6% | remaining activity at 1 µM (TBK1; [1]): 43% | remaining activity at 1 µM (TYRO3; [1]): 100% | remaining activity at 1 µM (SNRK; [1]): 55% | remaining activity at 1 µM (STK16; [1]): 0.75% | remaining activity at 1 µM (PAK1; [1]): 64% | remaining activity at 1 µM (S6K1; [1]): 100% | remaining activity at 1 µM (QSK; [1]): 100% | remaining activity at 1 µM (PIK3CA(I800L); [1]): 100% | remaining activity at 1 µM (TAOK2; [1]): 65% | remaining activity at 1 µM (TAK1; [1]): 3.6% | remaining activity at 1 µM (NEK4; [1]): 100% | remaining activity at 1 µM (PRKCE; [1]): 63% | remaining activity at 1 µM (PFTK1; [1]): 100% | remaining activity at 1 µM (PFTAIRE2; [1]): 100% | remaining activity at 1 µM (MKK7; [1]): 8.1% | remaining activity at 1 µM (YSK1; [1]): 89% | remaining activity at 1 µM (PRKCI; [1]): 65% | remaining activity at 1 µM (PAK7; [1]): 13% | remaining activity at 1 µM (SBK1; [1]): 10% | remaining activity at 1 µM (PAK6; [1]): 74% | remaining activity at 1 µM (TRKA; [1]): 30% | remaining activity at 1 µM (WEE1; [1]): 88% | remaining activity at 1 µM (RET(V804M); [1]): 2.2%

remaining activity at 1 µM (NEK3; [2]): 100% | remaining activity at 1 µM (RSK3; read-out: HYJ-2-002-1 (1μM) % control, Kin.Dom.1-N-terminal): 42% | remaining activity at 1 µM (RSK3; read-out: HYJ-2-002-1 (1μM) % control, Kin.Dom.2-C-terminal): 73% | remaining activity at 1 µM (TNK1; [2]): 15% | remaining activity at 1 µM (PLK2; [2]): 100% | remaining activity at 1 µM (PRKD1; [2]): 90% | remaining activity at 1 µM (TXK; [2]): 2.1% | remaining activity at 1 µM (TBK1; [2]): 100% | remaining activity at 1 µM (TYRO3; [2]): 40% | remaining activity at 1 µM (SNRK; [2]): 100% | remaining activity at 1 µM (STK16; [2]): 80% | remaining activity at 1 µM (PAK1; [2]): 100% | remaining activity at 1 µM (S6K1; [2]): 55% | remaining activity at 1 µM (QSK; [2]): 100% | remaining activity at 1 µM (PIK3CA(I800L); [2]): 100% | remaining activity at 1 µM (TAOK2; [2]): 18% | remaining activity at 1 µM (TAK1; [2]): 6.6% | remaining activity at 1 µM (NEK4; [2]): 57% | remaining activity at 1 µM (PRKCE; [2]): 100% | remaining activity at 1 µM (PFTK1; [2]): 100% | remaining activity at 1 µM (PFTAIRE2; [2]): 94% | remaining activity at 1 µM (MKK7; [2]): 8.2% | remaining activity at 1 µM (YSK1; [2]): 87% | remaining activity at 1 µM (PRKCI; [2]): 73% | remaining activity at 1 µM (PAK7; [2]): 92% | remaining activity at 1 µM (SBK1; [2]): 93% | remaining activity at 1 µM (PAK6; [2]): 100% | remaining activity at 1 µM (TRKA; [2]): 6.6% | remaining activity at 1 µM (WEE1; [2]): 100% | remaining activity at 1 µM (RET(V804M); [2]): 1%
Compound: CCN1CCN(Cc2ccc(NC(=O)c3ccc(C)c(CCc4cnc5[nH]ccc5c4OC)c3)cc2C(F)(F)F)CC1 [HYJ-2-002-1]
